This is an account of results in patent publication US20250170212A1, “COMPOSITIONS AND METHODS OF TREATING AMYOTROPHIC LATERAL SCLEROSIS (ALS) AND RELATED DISORDERS” (BIOINCEPT, LLC, priority 2022, published 2025).

Assay [1] has as its system Iba1+ cells (microglial activation). Put plainly: Immunohistochemistry of microglial cells in brainstem motor nuclei. Type of assay: in vivo, mouse. The conditions noted are these: facial and hypoglossal motor nuclei; compared to Injury. As to the method: At the end of experiment, mice were subjected to full body perfusion with 20% sucrose and 10% buffered formalin suitable for histology assays (Sigma Aldrich, St.Louis, MO, USA). Mice were decapitated and incubated in formalin for 24 h. Following the tissues (brain and spinal cord) were isolated, paraffin fixed for further analyses. After brain removal, the tissue was fixed in a formaldehyde solution (4%) for 2-4 hours at RT followed by 4° C. for a total time of 24-48 hours. Fixed tissues were embedded in paraffin and finally sectioned into 7 μm slices. […]
Assessment of neuronal and microglial positive cells were performed in the region of interest (ROI). […] The images were analyzed and reconstructed using Image J (US National Institutes of Health).
All quantifications were performed including the manual cell counts in a blinded manner. The NeuN and Ibal were counted as positive cells in the ROI (see above) as previously reported. The number of cells was determined by unbiased counting of positive cells. […] Differences between groups were analyzed using a repeated measure ANOVA model with a fixed effect for the group, of the time and a random intercept for the mouse. In a second, more explorative, approach for each group the time when the physical activity was first measured below a certain threshold was determined. […]

The subject of assay [2] is experimental autoimmune encephalomyelitis. As to conditions: murine EAE models; cited from earlier work.

Regarding MVRIKPGSANKPSDD [sPIF], in assay [1], the “number of Iba1+ microglial cells (neuroinflammation)” value was “significant prevention of neuroinflammation”. In addition, the paralysis and myelination result in assay [2] is “reverse and prevent paralysis and restore myelination”.
